Reference: the supplement of paper PMC10307832

What was measured:
Assay in all cases: relative viability (nuclei count vs DMSO), 5 days (fraction); higher = more cells survive
[1] = compound: NCC(=O)Nc1ccc(-n2nc(C(F)(F)F)cc2-c2ccc3c(ccc4ccccc43)c2)cc1 + CS(=O)(=O)N1CCN(Cc2cc3nc(-c4cccc5[nH]ncc45)nc(N4CCOCC4)c3s2)CC1 [Pictilisib] (partner 1 µM)
Outline: (§1)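 Nuclei were stained with Hoechst during a one-step fixation (final 0.05% Triton X-100, 1% formaldehyde, 1 ug/ml Hoechst) carried out 5 days after dosing, then counted on 4× images. The cells, lung cancer lines in 1536-well plates, had been dosed by pin tool the day after seeding with one drug alone or a fixed anchor-drug dose plus five library-drug doses (not always all listed) in √10 steps. Relative viability is the nuclei count in treated wells divided by that in vehicle wells, and each value is the median of duplicate plates.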

[2] = compound: NCC(=O)Nc1ccc(-n2nc(C(F)(F)F)cc2-c2ccc3c(ccc4ccccc43)c2)cc1 + COc1cc2c(Oc3ccc(NC(=O)C4(C(=O)Nc5ccc(F)cc5)CC4)cc3F)ccnc2cc1OCCCN1CCOCC1 [Foretinib] (partner 0.25 µM)
Outline: as §1

kb NB 142-70 = compound: C1CSC2=C(C(=O)N1)SC3=C2C=C(C=C3)O [kb NB 142-70]
Outline: (§2)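 Lung cancer cell lines in 1536-well plates were exposed by pinning to five library-drug doses (not always all listed) √10 apart, following an overnight hold at 37 °C. MetaXpress counted Hoechst-stained nuclei from 4× images taken after 5 days without medium change. Viability is the median ratio of treated-well to vehicle-well nuclei across plates. Plates required control CV below 25% and at least one doubling.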

[3] = compound: NCC(=O)Nc1ccc(-n2nc(C(F)(F)F)cc2-c2ccc3c(ccc4ccccc43)c2)cc1
Outline: as §2

UMC-11 showed a relative viability ([1]; first compound 0.02 µM) of 0.835, a relative viability ([1]; first compound 0.06325 µM) of 0.866 and a relative viability ([1]; first compound 0.2 µM) of 0.858. For the same cell line, the relative viability ([1]; first compound 0.6325 µM) was 0.732, the relative viability ([1]; first compound 2 µM) was 0.828 and the relative viability ([2]; first compound 0.02 µM) was 0.974. It also gave a relative viability ([2]; first compound 0.06325 µM) of 1.04, a relative viability ([2]; first compound 0.2 µM) of 1.06 and a relative viability ([2]; first compound 0.6325 µM) of 1.01. For the same cell line, the relative viability ([2]; first compound 2 µM) was 1.11, the relative viability (kb NB 142-70; 0.1 µM) was 1.03 and the relative viability (kb NB 142-70; 1 µM) was 0.973. For the same cell line, the relative viability (kb NB 142-70; 3.162 µM) was 0.572, the relative viability ([3]; 0.02 µM) was 0.93 and the relative viability ([3]; 0.06325 µM) was 1. The relative viability ([3]; 0.2 µM) was 1.05, the relative viability ([3]; 0.6325 µM) was 1.01 and the relative viability ([3]; 2 µM) was 0.931.
